# Results reported in patent publication US6652853B2, “Method for treating cancer using A33 specific antibodies and chemotherapeutic agents” (Ludwig Institute for Cancer Research, priority 2001, dated 2003).
# Test system: cell cultures (cancer cells)
# Experiment: Cytotoxic effects in cell cultures, QFA, calicheamicin and huA33 conjugates
# Conditions: added to cell cultures
substance,measurement,value
calicheamicin,cytotoxic effects in vitro,weak cytotoxic effects
